Experimental data as given in patent publication US11857535B2, “Methods of treating mutant lymphomas” (Kymera Therapeutics, Inc., priority 2020, dated 2024).

Assays:
IRAK4 = molecular target: T1, IRAK4 (Homo sapiens, UniProt Q9NWZ3); assay: IRAK4 MSD degradation in OCI-Ly10; type: cell-based; conditions: OCI-Ly10 cells, 24 hrs
T1 construct: endogenous in cells; host or cells: OCI-Ly10
T1 sequence (Q9NWZ3 1-460): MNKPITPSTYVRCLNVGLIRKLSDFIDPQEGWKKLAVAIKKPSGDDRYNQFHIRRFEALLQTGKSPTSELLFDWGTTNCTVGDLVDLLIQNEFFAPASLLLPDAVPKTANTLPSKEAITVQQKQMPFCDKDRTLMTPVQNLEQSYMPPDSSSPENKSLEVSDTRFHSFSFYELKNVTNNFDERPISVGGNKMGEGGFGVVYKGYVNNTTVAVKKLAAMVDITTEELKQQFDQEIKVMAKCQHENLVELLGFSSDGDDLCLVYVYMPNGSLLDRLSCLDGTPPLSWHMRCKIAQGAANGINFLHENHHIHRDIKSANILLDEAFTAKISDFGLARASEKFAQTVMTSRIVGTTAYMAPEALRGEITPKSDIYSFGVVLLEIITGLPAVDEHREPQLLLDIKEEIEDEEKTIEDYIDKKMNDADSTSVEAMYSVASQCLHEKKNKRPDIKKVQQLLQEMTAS
Method: Degradation of IRAK4 in OCI-Ly10 was quantitatively measured using Meso Scale Discovery technology. OCI-Ly10 cells were seeded in 96-well plates (Corning 3799) with a density of 300,000 cells per well in 100 μL fresh media. Compounds were then added to the assay plates with a final top concentration of 1 to 10 μM in a 1:3 dilution series with total of 8 doses. The assay plates were then incubated for 4 to 24 hours at 37° C. under 5% CO2. The assay plates were then centrifuged for 5 minutes and the cell pellets were treated with 100 μL/well RIPA lysis buffer (Boston BioProducts BP-115D) with proteinase inhibitors. To prepare MSD assay plates (Meso Scale Discovery Catalog number L15XA-3), the plates were coated with 2 μg/mL capture antibody (mouse Anti-IRAK4 antibody [2H9], ab119942) in PBS, at 40 μL/well. The plates were then incubated overnight at 4° C., washed 3 times with 150 μL/well TBST buffer (Cell Signaling Technology, Catalog number 9997S) and blocked with 150 μL/well blocking buffer (Meso Scale Discovery Catalog number R93BA-4). Cell lysates were then added to MSD assay plates and the plates were incubated at room temperature for 1 hour. The plates were then washed 3 times with 150 μL/well TBST buffer and […] primary detection antibody (rabbit Anti-IRAK4 antibody [Y279], from Abcam. Catalog number ab32511, 1 μg/mL). The assay plates were then incubated at room temperature for 1 hour, washed 3 times with 150 μL/well TBST buffer and 25 μL/well secondary detection antibody, SULFO-TAG anti-rabbit antibody were added (anti rabbit antibody from Meso Scale Discovery, Catalog number R32AB-1, 1 μg/mL). The assay plates were then incubated at room temperature for 1 hour, washed 3 times with 150 μL/well TBST buffer, and 150 μL/well MSD reading buffer (Meso Scale Discovery catalog number R92TC-2) was added. The plates were then analyzed by a MSD reader (Meso Scale Discovery, Model Quick Plex SQ 120). The data was then analyzed by software Prism 7.0 from GraphPad and the dose-depended IRAK4 degradation were fit using a three-parameter logistic equation to calculate DC50.

OCI-Ly10 = assay: CTG cell viability assay - OCI-Ly10; type: cell-based; conditions: Homo sapiens, 96 h; OCI-Ly10, 4 days
Method: Compound-mediated viability effect on OCI-Ly10 or SUDHL-2 was quantitatively determined using the CellTiter-Glo® Luminescent Cell Viability Assay kit from Promega (Catalog number G7570) following manufacturer's recommended procedures. Briefly, OCI-Ly10 or SUDHL-2 cells were seeded into 384 well plates (Grenier Bio-One, Catalog number 781080) with a density of 10,000 cells per well. Compounds were then added to the assay plate with final top concentration of 10 μM and 1:3 dilution series with total of 9 doses. The final DMSO concentration was normalized to 0.2%. The assay plates were incubated at 37° C. for 4 days under 5% CO2. Then the assay plate was equilibrated at room temperature for 10 minutes. To determine cell viability, 30 μL CellTiter Glo reagent was added to each well and the assay plate was centrifuged at 1000 rpm for 30 second, incubated at room temperature for 10 min, and analyzed by detecting the luminescence using a multimode plate reader (EnVision 2105, PerkinElmer). The data was then analyzed by software Prism 7.0 from GraphPad and the dose response curves were fit using a three-parameter logistic equation to calculate IC50.

[1] = system: MYD88-mutant and wild type DLBCL PDX models; conditions: MYD88 MT model LY0257 with mutation in Aiolos; cited from earlier work

| DC50 (IRAK4) [nM] | IC50 (OCI-Ly10) [nM] | Structure (SMILES) | sensitivity of PDX model LY0257 [1] |
| --- | --- | --- | --- |
| < 50 | < 50 | CC(C)(O)c1cc2nc([C@H]3CC[C@H](CN4CC5(CC(CCNc6cccc7c6C(=O)N([C@@H]6CCC(=O)NC6=O)C7=O)C5)C4)CC3)sc2cc1NC(=O)c1cccc(C(F)(F)F)n1 (single isomer, unassigned) [Compound (R)-A] | – |
| < 50 | < 50 | CC(C)(O)c1cc2nc([C@H]3CC[C@H](CN4CC5(CC(CCNc6cccc7c6C(=O)N([C@H]6CCC(=O)NC6=O)C7=O)C5)C4)CC3)sc2cc1NC(=O)c1cccc(C(F)(F)F)n1 (single isomer, unassigned) [Compound (S)-A] | – |
| – | – | Nc1cccc2c1CN(C1CCC(=O)NC1=O)C2=O (centres unmarked) [lenalidomide] | insensitive |
